Assay results from patent US11976074B1, “Crystalline salts of Linsitinib” (Sling Therapeutics, Inc., priority 2023, dated 2024).
One block for each compound: values may come before it.

Legend:
Format in all cases: physicochemical
[1] = Equilibrium solubility in bio-relevant media (FaSSGF pH 1.6, FaSSIF pH 6.5); details: for Solubility compared with the free base: in words
Text: In addition to the pH-solubility data, a comparison of the equilibrium solubility of linsitinib free base and salts in two bio-relevant media (Table 28), fasted state simulated gastric fluid (FaSSGF pH 1.6) and intestinal fluid (FaSSIF pH 6.5) was completed. […] A saturated solution of Esylate 1 was not achieved during this study and therefore the equilibrium solubility could be higher than determined. It should be noted that variability of almost a full pH unit was noted among the samples making a direct comparison more challenging.

[2] = pH-solubility of linsitinib free base and selected salts (pH 1.5 to 6.5, overnight equilibration, HPLC); details: for solubility: overnight equilibration; for Final pH: after overnight equilibration
Protocol: The pH-solubility of selected salts (Phosphate 1, L-Malate 1, Esylate 1, and Esylate 2) was evaluated and compared with linsitinib free base. The solubility analysis was conducted in a manner consistent with a previous study that was performed with linsitinib free base. Aqueous solutions were prepared between pH 1.5 and pH 6.5 in 0.5 pH unit increments via titration of the solution using NaOH and HCl. For each salt or the free base, an attempt was made to reach saturation in each of the solutions by adding sufficient material to the solution such that excess solids remained. If saturation was achieved, the pH of the solution was measured and adjusted to the target pH and additional material was added if needed. The samples were then equilibrated overnight. The final pH of the solution was measured, the solids were filtered and selected samples were analyzed by PXRD. The concentration of linsitinib in the filtrate was quantitated by HPLC (diluted as needed). In some cases, significant drift (+1 pH unit or more) of the final pH from the target pH was observed after the overnight equilibration.
The pH-solubility data is shown graphically in FIG. 89. […] Indeed, it should be noted that in the majority of the low pH systems, higher initial dissolution/solubility was observed followed by precipitation of the material from solution upon longer equilibration.

[3] = Polymorph screen of linsitinib malate (PXRD/XRPD result); details: solvent and conditions per sample no.; for PXRD Results: polymorph screen of linsitinib malate, slurry, cooling, precipitation or lyophilization
Protocol: A Rigaku SmartLab X-Ray Diffractometer was configured in Bragg-Brentano reflection geometry equipped with a beam stop and knife edge to reduce incident beam and air scatter.
A polymorph screen of linsitinib malate was conducted. Experiments were designed to target thermodynamically stable forms and therefore utilized techniques such as long-term slurry, cooling, anti-solvent addition, and evaporation. Reaction crystallization experiments with linsitinib free base and L-malic acid were also conducted. Additionally, non-crystalline material was used as an alternative starting material as this can provide access to polymorphs that would not be accessible from crystalline starting material.

[4] = Physical stability on capped storage at room temperature (PXRD reanalysis)
Protocol: A theoretical hemi-hydrate for a mono-edisylate salt of linsitinib would contain 1.4% water. Additional endotherms are observed at 252 and 278° C. that are likely due to melt/decomposition based on the corresponding weight loss in the TGA beginning around 244° C.
HCl 1 was generated via evaporation of a solution containing 1:1 linsitinib:acid in tetrahydrofuran (THF)/water at 70° C. […] The weight loss is likely due to water and potentially evolution of hydrochloric acid.
The sample was initially analyzed by PXRD and stored at ambient temperature in a capped vial. (FIG. 85).

[5] = Thermogravimetric analysis (TGA)
Protocol: The TG analysis was carried out using a TA Instruments […] Discovery Series instrument. The instrument balance was calibrated using class M weights and the temperature calibration was performed using alumel. The nitrogen purge was 10 mL per minute at the balance and 25 mL per minute at the furnace. The sample was placed into a pre-tared platinum pan and heated from approximately 25° C. to 300° C. at a rate of 10° C. per minute.

[6] = Interconversion slurries of esylate forms; details: 4° C., RT, 60° C.; MEK and 2:1 EtOH:HEP
Protocol: To find the thermodynamically stable form of the mono-salt, interconversion slurries were set-up at three different temperatures in two different solvent systems between Esylates 1, 2, 3 and Esylate 4+Esylate 5 (Table 11). A sample of Esylate 4+Esylate 5 was included as part of the interconversion slurry in-spite of Esylate 4 being a solvate as Esylate 5 could not be isolated as a separate pure phase until the drying experiment was carried out on Esylate 4 towards the end of the study. Slurries were set-up at 4° C., RT and at 60° C. in MEK and 2:1 EtOH:HEP, resulting in a total of six experiments which were run for a total of 7 days.

[7] = Water activity slurries of Esylate 2 seeded with Esylate 1; details: THF/H2O, aw 0.45-0.91, RT
Text: Water activity slurries were set-up with Esylate 2 and seeds of Esylate 1 to explore the presence of a potential hydrate and any associated critical water activity (Table 12). Four slurries were set-up in varying ratios of THF and H2O corresponding to 0.45, 0.63, 0.78 and 0.91 aw respectively.

[8] = fasted state simulated gastric fluid (FaSSGF), pH 1.6, fassgf or other biorelevant, thermodynamic from solid, FaSSGF (pH 1.6), read-out: Solubility
[9] = aqueous solution, pH 4, aqueous buffer, thermodynamic from solid, target pH 4.0, * = clear solution, not equilibrium value, read-out: Solubility
[10] = aqueous solution, pH 4.5, aqueous buffer, thermodynamic from solid, target pH 4.5, * = clear solution, not equilibrium value, read-out: Solubility
[11] = aqueous solution, pH 5, aqueous buffer, thermodynamic from solid, target pH 5.0, read-out: Solubility
[12] = aqueous solution, pH 5.5, aqueous buffer, thermodynamic from solid, target pH 5.5, read-out: Solubility
[13] = aqueous solution, pH adjusted with NaOH and HCl, pH 1.5, aqueous buffer, thermodynamic from solid, target pH 1.5, * = clear solution, not equilibrium value, read-out: Solubility
[14] = aqueous solution, pH adjusted with NaOH and HCl, pH 2, aqueous buffer, thermodynamic from solid, target pH 2.0, * = clear solution, not equilibrium value, read-out: Solubility
[15] = aqueous solution, pH adjusted with NaOH and HCl, pH 2.5, aqueous buffer, thermodynamic from solid, target pH 2.5, * = clear solution, not equilibrium value, read-out: Solubility
[16] = aqueous solution, pH adjusted with NaOH and HCl, pH 3, aqueous buffer, thermodynamic from solid, target pH 3.0, * = clear solution, not equilibrium value, read-out: Solubility
[17] = aqueous solution, pH adjusted with NaOH and HCl, pH 3.5, aqueous buffer, thermodynamic from solid, target pH 3.5, * = clear solution, not equilibrium value, read-out: Solubility

Structure (SMILES): C[C@]1(O)C[C@@H](c2nc(-c3ccc4ccc(-c5ccccc5)nc4c3)c3c(N)nccn32)C1.O=C(O)C[C@H](O)C(=O)O [L-Malate 9]
XRPD Results ([3]; polymorph screen starting from non-crystalline linsitinib L-malate, vapor stress, humidity stress, slurry or precipitation, listed as 4-66): Malate 9

Structure (SMILES): C[C@]1(O)C[C@@H](c2nc(-c3ccc4ccc(-c5ccccc5)nc4c3)c3c(N)nccn32)C1.O=C(O)C[C@H](O)C(=O)O [L-Malate 3]
TGA Results (weight loss) ([5]; 90° C. to 139° C.): 0.6%, 90 °C to 139 °C
TGA Results (weight loss) ([5]; start to 90° C.): 3.0%, start to 90 °C
PXRD Results ([3]; listed as 4-22): Malate 3; LC

Structure (SMILES): C[C@]1(O)C[C@@H](c2nc(-c3ccc4ccc(-c5ccccc5)nc4c3)c3c(N)nccn32)C1.O=C(O)C[C@H](O)C(=O)O [L-Malate 2]
PXRD Results ([3]; listed as 4-45): Malate 2

Structure (SMILES): CCS(=O)(=O)O.C[C@]1(O)C[C@@H](c2nc(-c3ccc4ccc(-c5ccccc5)nc4c3)c3c(N)nccn32)C1 [Esylate 5]
Relative stability of the form in interconversion slurries [6]: metastable

Structure (SMILES): CCS(=O)(=O)O.C[C@]1(O)C[C@@H](c2nc(-c3ccc4ccc(-c5ccccc5)nc4c3)c3c(N)nccn32)C1 [Esylate 1]
Relative stability of the form in water activity slurries [7]: metastable
Final pH ([1]; FaSSGF (pH 1.6)): 3.30
Solubility compared with the free base ([1]; FaSSGF (pH 1.6)): highest solubility by a significant margin
Final pH ([1]; FaSSIF (pH 6.5)): 6.20
solubility ([1]; FaSSIF (pH 6.5)): 0.006 mg/mL
Solubility compared with the free base ([1]; FaSSIF (pH 6.5)): lower solubility
solubility [1, 8]: ≥ 61.6 mg/mL
solubility [2, 9]: 32.3 mg/mL
solubility [2, 10]: 36.6 mg/mL
solubility [2, 11]: 28.7 mg/mL
solubility [2, 12]: 0.0517 mg/mL
solubility [2, 13]: 64.3 mg/mL
solubility [2, 14]: 59.1 mg/mL
solubility [2, 15]: 47.3 mg/mL
solubility [2, 16]: 53 mg/mL
solubility [2, 17]: 31 mg/mL
Solubility compared to the free base and other salts ([2]; between pH 3 and pH 4): highest solubility
Solubility compared with the free base or Phosphate 1 ([2]; lower pH (<3)): significantly higher solubility
Final pH ([2]; target pH 1.5): 1.52
Final pH ([2]; target pH 2.0): 1.99
Final pH ([2]; target pH 2.5): 2.50
Final pH ([2]; target pH 3.0): 3.04
Final pH ([2]; target pH 3.5): 3.50
Final pH ([2]; target pH 4.0): 3.94
Final pH ([2]; target pH 4.5): 4.36
Final pH ([2]; target pH 5.0): 3.86
Final pH ([2]; target pH 5.5): 4.47
Final pH ([2]; target pH 6.0): 9.08
Final pH ([2]; target pH 6.5): 4.46
solubility ([2]; target pH 6.5): 0.0296 mg/mL

Structure (SMILES): C[C@]1(O)C[C@@H](c2nc(-c3ccc4ccc(-c5ccccc5)nc4c3)c3c(N)nccn32)C1.O=C(O)C[C@H](O)C(=O)O [L-Malate 6]
TGA Results (weight loss) ([5]; start to 61° C.): 4.2%, start to 61 °C

Now from value to compound:

Final pH ([1]; FaSSGF (pH 1.6)): 2.74
Solubility compared with the free base ([1]; FaSSGF (pH 1.6)): largely comparable
Final pH ([1]; FaSSIF (pH 6.5)): 5.63
solubility [1, 8]: 9.51 mg/mL
solubility ([1]; fasted state simulated intestinal fluid (FaSSIF), pH 6.5, fassif, thermodynamic from solid, FaSSIF (pH 6.5), read-out: Solubility): 0.009 mg/mL
solubility [2, 9]: 5.87 mg/mL
solubility [2, 10]: 3.04 mg/mL
solubility [2, 11]: 0.0458 mg/mL
solubility [2, 12]: 0.035 mg/mL
solubility ([2]; aqueous solution, pH 6, aqueous buffer, thermodynamic from solid, target pH 6.0, read-out: Solubility): 0.0046 mg/mL
solubility ([2]; aqueous solution, pH 6.5, aqueous buffer, thermodynamic from solid, target pH 6.5, read-out: Solubility): 0.001 mg/mL
solubility [2, 13]: 38.6 mg/mL
solubility [2, 14]: 25.9 mg/mL
solubility [2, 15]: 18.4 mg/mL
solubility [2, 16]: 14.9 mg/mL
solubility [2, 17]: 7.5 mg/mL
Final pH ([2]; target pH 1.5): 1.39
Final pH ([2]; target pH 2.0): 1.72
Final pH ([2]; target pH 2.5): 2.46
Final pH ([2]; target pH 3.0): 2.58
Final pH ([2]; target pH 3.5): 2.89
Final pH ([2]; target pH 4.0): 3.69
Final pH ([2]; target pH 4.5): 4.01
Final pH ([2]; target pH 5.0): 5.49
Final pH ([2]; target pH 5.5): 5.73
Final pH ([2]; target pH 6.0): 5.65
Final pH ([2]; target pH 6.5): 6.21
Structure (SMILES): C[C@]1(O)C[C@@H](c2nc(-c3ccc4ccc(-c5ccccc5)nc4c3)c3c(N)nccn32)C1.O=P(O)(O)O [Phosphate 1]

PXRD result after storage at RT ([4]; 20 days, capped, listed as 2-13): Form I
Structure (SMILES): C[C@]1(O)C[C@@H](c2nc(-c3ccc4ccc(-c5ccccc5)nc4c3)c3c(N)nccn32)C1 [Form I]

PXRD result after storage at RT ([4]; 23 days): Form B (LC)
Structure (SMILES): C[C@]1(O)C[C@@H](c2nc(-c3ccc4ccc(-c5ccccc5)nc4c3)c3c(N)nccn32)C1 [Form B, reference compound]

PXRD result after storage at RT ([4]; 17 days, capped): Form I
PXRD result after storage at RT ([4]; 20 days, capped): converted to Form I
Structure (SMILES): C[C@]1(O)C[C@@H](c2nc(-c3ccc4ccc(-c5ccccc5)nc4c3)c3c(N)nccn32)C1 [Form J]

PXRD result after storage at RT ([4]; 17 days, capped): no significant changes
PXRD result after storage at RT ([4]; 17 days, capped, listed as 2-11): HCl 1
Structure (SMILES): C[C@]1(O)C[C@@H](c2nc(-c3ccc4ccc(-c5ccccc5)nc4c3)c3c(N)nccn32)C1.Cl [HCl 1]

PXRD result after storage at RT ([4]; 20 days, capped): no significant changes
PXRD result after storage at RT ([4]; 20 days, capped, listed as 2-4): Edisylate 1
Structure (SMILES): C[C@]1(O)C[C@@H](c2nc(-c3ccc4ccc(-c5ccccc5)nc4c3)c3c(N)nccn32)C1 [Edisylate 1]
